# Results taken from PubChem BioAssay (NCI).
# Several values for one entry are separate records, joined by “and”; a condition that tells them apart may be missing. Equal values may be shown once.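 Cultured in 96-well plates, cells were exposed to test compound for 48 hours across five concentrations. Abbreviation: GI50, concentration required for 50% inhibition of growth. TGI is the concentration that stops growth completely.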
# Experiments:
# Test in all cases: NCI anticancer screen, dose series, 48 h
# CCRF-CEM leukemia = test system: CCRF-CEM leukemia
# OVCAR-5 ovarian = test system: OVCAR-5 ovarian
# HCC-2998 colon = test system: HCC-2998 colon
# COLO 205 colon = test system: COLO 205 colon
# NCI-H522 lung = test system: NCI-H522 lung
# SK-MEL-5 melanoma = test system: SK-MEL-5 melanoma
# SNB-75 CNS = test system: SNB-75 CNS
# SNB-19 CNS = test system: SNB-19 CNS
# HOP-62 NSCLC = test system: HOP-62 NSCLC
# KM12 colon = test system: KM12 colon
SMILES,TGI (CCRF-CEM leukemia),TGI (OVCAR-5 ovarian),TGI (HCC-2998 colon),TGI (COLO 205 colon),TGI (NCI-H522 lung),TGI (SK-MEL-5 melanoma),TGI (SNB-75 CNS),TGI (SNB-19 CNS),TGI (HOP-62 NSCLC),TGI (KM12 colon),GI50 (CCRF-CEM leukemia),GI50 (OVCAR-5 ovarian),GI50 (HCC-2998 colon),GI50 (COLO 205 colon),GI50 (NCI-H522 lung),GI50 (SK-MEL-5 melanoma),GI50 (SNB-75 CNS),GI50 (SNB-19 CNS),GI50 (HOP-62 NSCLC),GI50 (KM12 colon)
COc1cc2c(cc1OC(=O)CC(C)O)C1C(OC2=O)C(OC(C)=O)C=C2CCN(C)[C@H]21 (stereo partly drawn),> 100 µM,> 100 µM,> 100 µM,> 100 µM,> 100 µM,> 100 µM,38.4 µM,57.5 µM,55.7 µM,> 100 µM,–,–,–,–,–,–,–,–,–,–
CC(=O)NC1=C(OS(=O)(=O)c2ccc(C)cc2)CN(C)C1=O,4.28 µM,32 µM,11.5 µM,25.3 µM,9.74 µM,18.4 µM,15.1 µM,14.9 µM,11.9 µM,14.3 µM,–,–,–,–,–,–,–,–,–,–
CCCn1c(C)nc2c1C(=O)c1ccccc1C2=O,> 100 µM,> 100 µM,> 100 µM,> 100 µM,75.1 µM,27.2 µM,> 100 µM,> 100 µM,> 100 µM,> 100 µM,15.6 µM,> 100 µM,50.2 µM,37.6 µM,18.7 µM,13.4 µM,55.4 µM,53.3 µM,41.3 µM,32.2 µM
C=CC(=O)N1CCN(c2ccc3cccc(NC(=O)c4cnc(C)cn4)c3n2)CC1,8.29 µM,81.7 µM,23.6 µM,30 µM,17.8 µM,16.9 µM,9.66 µM,> 100 µM,> 100 µM,19 µM,2.08 µM,16.5 µM,5.32 µM,6.26 µM,1.99 µM,4.42 µM,0.565 µM,5.38 µM,4.24 µM,2.84 µM
O=C(C1CCCCC1)[C@@H]1[C@]2(C(=O)NC3CCCCC32)[C@@H]2CCCN2[C@@]12C(=O)NC1CCC(Cl)CC12 (stereo partly drawn),137 µM,284 µM,293 µM,323 µM,281 µM,234 µM,256 µM,299 µM,287 µM,273 µM,32.3 µM,149 µM,135 µM,158 µM,120 µM,110 µM,58.1 µM,148 µM,123 µM,130 µM
Cc1ccc(C(=O)Nc2ccc(CN3CCN(C)CC3)c(C(F)(F)F)c2)cc1C#Cc1cnc2cccnn12,5.21 µM and 5.63 µM,1.64 µM and 4.69 µM,1.86 µM and 4.05 µM,1.24 µM and 3.01 µM,1.28 µM and 3.26 µM,2.04 µM and 4.66 µM,1.66 µM and 3.03 µM,2.28 µM and 4.67 µM,1.53 µM and 3.73 µM,1.22 µM and 3.72 µM,0.618 µM and 1.65 µM,0.41 µM and 0.808 µM,0.579 µM and 1.38 µM,0.328 µM and 0.879 µM,0.319 µM and 0.538 µM,0.79 µM and 2.74 µM,0.377 µM and 1.02 µM,0.973 µM and 2.7 µM,0.413 µM and 0.849 µM,0.0455 µM and 0.131 µM
COc1cc2c(c(OC)c1OC)-c1ncc3cc(OC)c(OC)c(OC)c3c1C2,> 100 µM,> 100 µM,30.7 µM,50.3 µM,43.2 µM,29.5 µM,> 100 µM,94.2 µM,66.5 µM,63 µM,> 100 µM,22.5 µM,16.4 µM,25.8 µM,16.1 µM,15.5 µM,54.5 µM,28.9 µM,35.4 µM,17.8 µM
CC(C)(C)c1n[nH]c(=S)n(/N=C/c2ccc(F)c(Oc3ccccc3)c2)c1=O,> 100 µM,> 100 µM,> 100 µM,> 100 µM,> 100 µM,42.4 µM,> 100 µM,> 100 µM,> 100 µM,> 100 µM,32.7 µM,54.3 µM,33.2 µM,38.6 µM,> 100 µM,19.9 µM,32.5 µM,40.9 µM,90.1 µM,35.9 µM
C[C@]12CC[C@H]3[C@@H](CCC4=CC(=O)CC[C@@H]43)[C@@H]1CC[C@@H]2OC(=O)CCc1ccccc1,43.5 µM,> 81.5 µM,> 78.2 µM,40.1 µM,41.7 µM,26 µM,> 100 µM,37.5 µM,39.6 µM,43 µM,17.2 µM,42.8 µM,29.7 µM,16.3 µM,19.4 µM,13 µM,29 µM,18.4 µM,20.5 µM,19.8 µM
COc1ccc(-c2n[nH]nc2-c2cc(OC)c3c(c2OC)OCO3)cc1,> 100 µM,> 100 µM,19.3 µM,5.57 µM,3.67 µM,17.7 µM,3.96 µM,> 100 µM,> 66.1 µM,44.7 µM,0.565 µM,4.68 µM,1.7 µM,1.19 µM,0.486 µM,0.684 µM,0.573 µM,3.82 µM,1.45 µM,0.426 µM
COc1cccc(NC(=O)c2sc3nc4c(cc3c2N)CN(Cc2ccccc2)CC4)c1,> 100 µM,> 100 µM,> 100 µM,54.5 µM,> 100 µM,31.9 µM,4.71 µM,> 100 µM,6.47 µM,40.3 µM,29.5 µM,36.9 µM,9.13 µM,7.55 µM,15.1 µM,2.15 µM,1.73 µM,4.75 µM,1.83 µM,11.8 µM
O=C(NN1C(=O)CSC12CCCCC2)c1[nH]c2ccc(F)cc2c1-c1ccccc1,96.7 µM,> 100 µM,92.5 µM,> 100 µM,58.7 µM,> 100 µM,36.2 µM,44.2 µM,41.2 µM,32.6 µM,29.7 µM,37.6 µM,34.8 µM,36.8 µM,19.1 µM,41.4 µM,18.5 µM,19.8 µM,19.2 µM,17.1 µM
C/C(=N\Nc1ccc2ccccc2n1)c1ccccn1,0.0284 µM,14.5 µM,2.51 µM,2.7 µM,0.21 µM,2.24 µM,17.6 µM,14.3 µM,11 µM,9.12 µM,–,0.0832 µM,0.133 µM,< 0.0195 µM,–,0.103 µM,0.123 µM,0.198 µM,0.09 µM,0.115 µM
CCCCCCCCCCCC(=O)OCCOCCOCCOCCOCCOCc1ccc(OC)cc1,> 100 µM,> 100 µM,> 100 µM,> 100 µM,> 100 µM,> 100 µM,> 100 µM,> 100 µM,> 100 µM,> 100 µM,–,–,–,–,–,–,–,–,–,–
O=C(c1ccccc1)C(CN1CCOCC1)c1ccccc1 (stereo not drawn),1.19 µM,5.3 µM,15.6 µM,3.32 µM,0.995 µM,3.77 µM,12 µM,15.6 µM,19.7 µM,3.73 µM,0.283 µM,2.65 µM,4.36 µM,1.76 µM,0.255 µM,1.76 µM,2.29 µM,3.76 µM,6.5 µM,1.8 µM
COc1ccc(OC)c(NC(=O)CCC/C(CC(=O)c2ccc(O)c(OC)c2)=N\NC(=O)C[N+](C)(C)C)c1,> 100 µM,> 100 µM,> 100 µM,> 100 µM,> 100 µM,> 100 µM,> 100 µM,> 100 µM,> 100 µM,> 100 µM,–,–,–,–,–,–,–,–,–,–
Clc1cc(Cl)c(OCC#CI)cc1Cl,> 100 µM,27.2 µM,33.8 µM,3.06 µM,3.7 µM,18.9 µM,20 µM,43.9 µM,14.2 µM,27.5 µM,2.88 µM,13.7 µM,19.6 µM,1.57 µM,1.53 µM,5.93 µM,6.13 µM,18.3 µM,4.08 µM,13.9 µM
